How the values were obtained:
HSV-2 [1] = experiment: Combination study with acyclovir using the HSV-2 ELISA assay; assay type: cell-based, Herpes Simplex virus 2; settings: cyclomarin-A 0 to 16 μg/ml, acyclovir 0 to 5 μg/ml
Procedure: The ability of cyclomarin-A to inhibit HSV-2 was tested in a culture-based ELISA assay. This assay measures viral glycoprotein inserted into the surface membrane of infected cells, a step in the process of viral replication. Vero cells (African Green monkey kidney cells) were grown in RPMI-1640 medium with L-glutamine (Quality Biological, Gaithersburg, Md.) with 5% fetal bovine serum (FBS) and passaged twice weekly by trypsinization. These were plated in 96-well sterile tissue culture plates at 2×10^4 cells/well. After incubation overnight at 37° C. in a humidified atmosphere with 5% CO2, wells were inoculated with 1000 plaque forming units per well (PFU/well) HSV-2 (MacIntyre strain, ATCC # VR-539), previously titered by plaque assay and stored at -80° C. Virus was absorbed for 1 hour. Cyclomarin-A was diluted to concentrations between 10^-7 g/ml and 10^-4 g/ml in 50% DMSO and added to the cells in a final volume of 1.5 μl with 150 μl RPMI and 1% FBS. […]
Plates were incubated for 1 hour with a rabbit anti-HSV-2 IgG antibody diluted 1:5000 (DAKO, Carpenteria, Calif., catalog #B116), washed with PBS and incubated another hour with an HRP-labeled goat anti-rabbit antibody diluted 1:4000 (DAKO, catalog #PO448). […] OD was measured spectrophotometrically at a wavelength of 450 nm. Percent inhibition of HSV-2 was calculated against an infected, vehicle control (DMSO) with no drug added. […]

HSV-2 [2] = experiment: Multiplicity of infection study using the HSV-2 ELISA assay; assay type: cell-based, Herpes Simplex virus 2; settings: 18 hours
Procedure: The ability of cyclomarin-A to inhibit HSV-2 was tested in a culture-based ELISA assay. This assay measures viral glycoprotein inserted into the surface membrane of infected cells, a step in the process of viral replication. Vero cells (African Green monkey kidney cells) were grown in RPMI-1640 medium with L-glutamine (Quality Biological, Gaithersburg, Md.) with 5% fetal bovine serum (FBS) and passaged twice weekly by trypsinization. These were plated in 96-well sterile tissue culture plates at 2×10^4 cells/well. After incubation overnight at 37° C. in a humidified atmosphere with 5% CO2, wells were inoculated with 1000 plaque forming units per well (PFU/well) HSV-2 (MacIntyre strain, ATCC # VR-539), previously titered by plaque assay and stored at -80° C. Virus was absorbed for 1 hour. Cyclomarin-A was diluted to concentrations between 10^-7 g/ml and 10^-4 g/ml in 50% DMSO and added to the cells in a final volume of 1.5 μl with 150 μl RPMI and 1% FBS. The final DMSO concentration was 0.5%. Plates were incubated for 18 hours at 37° C., and fixed with 10% formalin to inactivate the virus.
Plates were incubated for 1 hour with a rabbit anti-HSV-2 IgG antibody diluted 1:5000 (DAKO, Carpenteria, Calif., catalog #B116), washed with PBS and incubated another hour with an HRP-labeled goat anti-rabbit antibody diluted 1:4000 (DAKO, catalog #PO448). After washing with PBS, TMB substrate was added for 15 minutes and reaction was stopped with addition of 1M phosphoric acid. OD was measured spectrophotometrically at a wavelength of 450 nm. Percent inhibition of HSV-2 was calculated against an infected, vehicle control (DMSO) with no drug added.
The effect of multiplicity of virus infection on cyclomarin-A activity was examined using the HSV-2 ELISA assay described in Example 1. Vero cell cultures were inoculated with HSV-2 to a final concentration of 500, 1000, 2500, and 5000 PFU/well. After cyclomarin-A was added to cells in 150 μl RPMI and 1% FBS, cells were incubated for 18 hours at which time the ELISA assay was completed. Percent inhibition of HSV-2 replication was calculated against an infected, vehicle control (DMSO) at the appropriate MOI with no drug added.

uninfected Vero cells = experiment: Vero cell growth inhibition (SRB stain); assay type: cell-based, African Green monkey; settings: 48 hours
Procedure: The effect of cyclomarin-A on the growth of uninfected Vero cells was examined. Vero cells were grown in RPMI with 5% FBS and passaged twice weekly by trypsinization. These were plated in 96 well sterile tissue culture plates at 2×10^4 cells/well in 200 μl and incubated overnight at 37° C. in a humidified atmosphere with 5% CO2. Cyclomarin-A (10 mg/ml stock solution) was serially diluted (100, 50, 25 and 12.5 μg/ml final concentrations) in 100% DMSO, and added to the cells in a volume of 2 μl. Final DMSO concentration was 1%. Plates were incubated at 37° C. for 48 hours. Cells were fixed by addition of 50% TCA to each well. Plates were incubated at 4° C. for 1 hour. After washing cells with distilled water 0.4% SRB (sulforhodamine B in 1% acetic acid) stain was added to each well. After 25 minutes the stain was washed away with 1% acetic acid and wells were allowed to dry. The remaining stain was resolubilized in 10 mM Tris pH 10.0. Optical density (OD) was determined spectrophotometrically at 650 nm. Percent inhibition of cell growth was calculated based on no drug, vehicle (1% DMSO) control wells as 100%.

## COC(c1ccccc1)[C@@H]1NC(=O)[C@H](C)NC(=O)[C@H](CC(C)CO)N(C)C(=O)[C@H](C(O)c2cn(C(C)(C)C3CO3)c3ccccc23)NC(=O)[C@H](C(C)C=C(C)C)NC(=O)[C@H](CC(C)C)N(C)C(=O)[C@H](C(C)C)NC1=O (stereo partly shown) [cyclomarin-A]
HSV-2 [1]
  Interference with acyclovir in combination: no interference with acyclovir
HSV-2 [2]; 6.25 μg/ml cyclomarin-A, 500 PFU/well
  Percent inhibition of HSV-2 replication: 51%
HSV-2 [2]; 6.25 μg/ml cyclomarin-A, 1000 PFU/well
  Percent inhibition of HSV-2 replication: 40%
HSV-2 [2]; 6.25 μg/ml cyclomarin-A, 2,500 PFU/well
  Percent inhibition of HSV-2 replication: 17%
HSV-2 [2]; 6.25 μg/ml cyclomarin-A, 5000 PFU/well
  Percent inhibition of HSV-2 replication: no detectable inhibition
Uninfected Vero cells; 100 μg/ml
  Percent inhibition of cell growth of uninfected Vero cells: 27-33%
Uninfected Vero cells; concentrations below 50 μg/ml
  Effect on growth of uninfected Vero cells: no effect on cell growth

— patent US5759995A, “Antiviral treatment” (priority 1996, dated 1998)
